Source: article PMC6154738, “Anti-Onchocerca and Anti-Caenorhabditis Activity of a Hydro-Alcoholic Extract from the Fruits of Acacia nilotica and Some Proanthocyanidin Derivatives” (Molecules : A Journal of Synthetic Chemistry and Natural …, 2017)
Converted amounts (≈) assume the structure as drawn. Like-named read-outs stand apart in the source and are kept apart here.

Legend:
O. ochengi [1] = details: cited from earlier work
O. ochengi males = experiment: microbe, parasite or virus in culture; set-up: species or system Onchocerca ochengi; details: for LC50: Onchocerca ochengi, 48 h; for Selectivity Index (SI) O. ochengi Males: SI = CC50 on Caco-2/LC50 on worm
Description: The adult male worms were isolated as previously describe by Ndjonka et al. from fresh pieces of cattle skin (cow-udder) with palpable nodules obtained from the communal slaughter house of Ngaoundere in the Adamawa region of Cameroon. Nodules removed from the skin were brought to the laboratory, washed, drained and sterilized with 70% ethanol for dissection. After dissection of nodules, O. ochengi were extracted, isolated and washed three times in sterile phosphate-buffered saline (PBS). To analyze the anthelmintic activity of extract, fractions and pure compounds, the worms were incubated at 37 °C.
(§1) Adult worms (six individuals per well for males and one per well for the female) and Mf were washed twice and were subsequently transferred to RPMI-1640 medium supplemented with L-glutamine, 100 U/mL penicillin and 100 µg/mL streptomycin and incubated at 37 °C in 24-well plates (96-well plate for Mf) with different concentrations of the drugs tested. Worm mortality was checked by observation under the binocular microscope after 48 h. After shaking, immotile and fully-elongated worms were considered to be dead. All tests were done in three independent triplicate determinations.

O. ochengi females = experiment: microbe, parasite or virus in culture; set-up: species or system Onchocerca ochengi; details: for LC50: Onchocerca ochengi, 48 h; for Selectivity Index (SI) O. ochengi Females: SI = CC50 on Caco-2/LC50 on worm
Procedure: The adult female worms were isolated by digestion of the nodules with collagenase at 37 °C. The female worms were cultured in a CO2-incubator [67]. For anthelmintic activity, they were incubated with the crude extracts, fractions and pure compounds.
as §1

O. ochengi microfilariae = experiment: microbe, parasite or virus in culture; set-up: species or system Onchocerca ochengi; details: for LC50: Onchocerca ochengi, 48 h; for Selectivity Index (SI) O. ochengi Microfilariae: SI = CC50 on Caco-2/LC50 on worm
Procedure: Microfilariae were isolated as describe by Cho-Ngwa et al. and Ndjonka et al.. About 10 skin snips were obtained from different locations of the skin. The skin snips were then incubated at 37 °C in PBS to let Mf emerge. The highly motile Mf were concentrated by centrifugation at 400× g for 10 min and quantified. The Mf were incubated at 37 °C with the crude extract, fractions and pure compounds.
as §1

[2] = system: C. elegans CB211 (lev-1(e211) IV); experiment: microbe, parasite or virus in culture; details: Caenorhabditis elegans, 48 h
Procedure: (§2) All strains were obtained from the Caenorhabditis Genetic Centre (CGC, Minneapolis, MN, USA). Strains were maintained at 20 °C on nematode growth medium (NGM). All worms were age-synchronized and obtained from eggs that were isolated by bleaching.
(§3) Young adult (L4 stage) worms were used to assess drug lethality. Monitored endpoint was 48 h mortality. Tests were performed in 24-well plates. Five hundred (500) microliters of test solution, which is M9-buffer (3 g KH2PO4, 6 g Na2HPO4, 5 g NaCl, 0.25 g MgSO4.7H2O, in 1 L of water after been autoclaved supplemented with 2% glucose, 0.5% cholesterol), were distributed in 24-well plates. The volume of M9-buffer equivalent to the drug to be added for each drug final concentration (in each test, three to six concentrations were used) was removed. Untreated worms in M9-buffer were used as negative control. […] Crude extract fraction (stock solution at 100 mg/mL) and pure compound (stock solution at 100 mg/mL) previously dissolved in M9-buffer were then added in well plates at increasing concentration (varying from 0 to 1000 or 1500 µg/mL for extract and fractions; 0 to 100 or 150 µg/mL). The young adult (10 to 15 ± 2) from the axenic culture (without food source) were then added at the test solution. […] Treatments were replicated three times.

[3] = system: C. elegans CB3474 (ben-1(e1880) III); experiment: microbe, parasite or virus in culture; details: Caenorhabditis elegans, 48 h
Procedure: as §2, §3

[4] = system: C. elegans DA1316 (avr-14(ad1302) I avr-15(ad1051) glc-1(pk54)); experiment: microbe, parasite or virus in culture; details: Caenorhabditis elegans, 48 h
Procedure: as §2, §3

C. elegans N2 Bristol WT = experiment: microbe, parasite or virus in culture; details: for LC50: Caenorhabditis elegans, 48 h; for Selectivity Index (SI) C. elegans Wild Type: SI = CC50 on Caco-2/LC50 on worm
Procedure: as §2, §3

[5] = system: C. elegans VC722 (glc-2(ok1047) I); experiment: microbe, parasite or virus in culture; details: Caenorhabditis elegans, 48 h
Procedure: as §2, §3

[6] = system: C. elegans ZZ16 (lev-9(x16) X); experiment: microbe, parasite or virus in culture; details: Caenorhabditis elegans, 48 h
Procedure: as §2, §3

[7] = In vitro cytotoxicity (MTT) and CC50 determination; assay type: cell-based; details: human; for CC50 at 48 h: Caco-2, CC50 after 48 h calculated in µM, read-out: Cytotoxicity CC50, Caco-2 (in brackets) (converted); for CC50 at 72 h: Caco-2, MTT, read-out: Cytotoxicity, means CC50 ± SD, Caco-2
Procedure: Cell culture: […] cells at Passage 70 were kindly provided by Prof. Hensel, Institute of Pharmaceutical Biology and Phytochemistry, University of Münster, and were cultured as previously describe by Zumdick et al..
Cytotoxicity test: The cytotoxicity assays were performed according to the method of Rahman et al.. Briefly, 1.5 × 10^4 viable cells/well were seeded in a 96-well plate and incubated for 24 to 48 h. […] DMEM samples were used as the negative control. […] The medium was removed, and formazan, generated by the activity of dehydrogenases, was solubilized with 70 µL of acidified isopropanol (0.4 M HCl). The amount of MTT-formazan that is directly proportional to the number of living cells was determined by measuring the optical density (OD) at 540 nm using a spectrophotometer. All controls used were treated equally. As control and to determine 100% growth, Caco-2 cells were grown in the absence of drugs so as to calculate cell viability. All determinations were performed in triplicate. […] The selectivity index (SI) values were calculated as the ratio: SI = CC50 of drug on Caco2/LC50 of drug on worm.

Wistar rats = experiment: Acute oral toxicity on rats
Description: Adult Wistar rats (Rattus norvegicus), males aged 7 to 8 weeks and weighing 150 to 200 g, used for the experiments were obtained from LANAVET (Laboratoire National Vétérinaire, Garoua, Cameroon). The rats were acclimatized for one week in the Veterinary Research Laboratory of the Institute of Agricultural Research for Development, Wakwa, Cameroon, before initiating experiments. Animals were housed in groups of three (one group for the negative control, six groups for each drug at the first phase, six others at the second phase) under ambient temperatures (23 °C ± 1 °C) with relative humidity 55 ± 5% and 12 h light/dark cycle in polycarbonate cages. […] They were monitored by a veterinarian for health status.
Acute oral toxicity (LD50, that is the dose that kills 50% of animals of the tested group) was measured using the method of the OECD guidelines for the testing of chemicals [56] following the European Community guidelines for the protection of animals used in experiments [69] and respecting the 3Rs (Replacement, Refinement, Reduction) [70]. Drugs in distilled water were orally administered separately at doses of 10 mg/kg, 100 mg/kg and 1000 mg/kg body weight. The negative controls were distilled water-administered rats. They were given to three groups of three rats each and observed for 24 h. […] The test was done at a single oral dose for each rat in a 5 mL/kg volume. The experimental animals were starved for 24 h before and 4 h after treatment. […] The appearance of toxic symptoms, such as behavioral changes, locomotion, convulsions and mortality, was observed and recorded. Animals were observed constantly for the first 30 min after administration and, thereafter, every 4 h up to 24 h and, subsequently, once a day for up to 14 days.

O. ochengi [8] = experiment: Anti-Onchocerca activity, all forms of the parasite (summary statements); details: read-out: LC50 against O. ochengi (all three forms)
Procedure: as §1

[9] = read-out: LC50/48 h (in brackets)
[10] = Phase 1, 10 mg/kg single oral dose
[11] = Phase 1, 100 mg/kg single oral dose
[12] = Phase 1, 1000 mg/kg single oral dose
[13] = Phase 2, 1500 mg/kg single oral dose
[14] = Phase 2, 3000 mg/kg single oral dose
[15] = Phase 2, 5000 mg/kg single oral dose

| Compound | LC50 (O. ochengi males; read-out: LC50/48 h) [µg/mL] | LC50 (O. ochengi males; [9]) [µM] | Selectivity Index (SI) O. ochengi Males (O. ochengi males) | LC50 (O. ochengi females; read-out: LC50/48 h) [µg/mL] | LC50 (O. ochengi females; [9]) [µM] | Selectivity Index (SI) O. ochengi Females (O. ochengi females) | LC50 (O. ochengi microfilariae; read-out: LC50/48 h) [µg/mL] | LC50 (O. ochengi microfilariae; [9]) [µM] | Selectivity Index (SI) O. ochengi Microfilariae (O. ochengi microfilariae) | LC50 ([2]; read-out: LC50/48 h) [µg/mL] | LC50 [2, 9] [µM] | LC50 ([3]; read-out: LC50/48 h) [µg/mL] | LC50 [3, 9] [µM] | LC50 ([4]; read-out: LC50/48 h) [µg/mL] | LC50 (C. elegans N2 Bristol WT; read-out: LC50/48 h) [µg/mL] | LC50 (C. elegans N2 Bristol WT; [9]) [µM] | Selectivity Index (SI) C. elegans Wild Type (C. elegans N2 Bristol WT) | LC50 ([6]; read-out: LC50/48 h) [µg/mL] | CC50 at 48 h [7] [µM] | CC50 at 72 h [7] [µg/mL] | also measured |
| --- | --- | --- | --- | --- | --- | --- | --- | --- | --- | --- | --- | --- | --- | --- | --- | --- | --- | --- | --- | --- | --- |
| CCCCC/C=C\C/C=C\CCCCCCCC(=O)O [linoleic acid] |  |  |  |  |  |  |  |  |  |  |  |  |  |  |  |  |  |  |  |  | LC50 (O. ochengi [1]): 55.7 µM |
| Oc1cc(O)c2c(c1)O[C@H](c1cc(O)c(O)c(O)c1)[C@@H](O)C2 [GC, (+)-gallocatechin] | 4.2 ± 0.1 | 13.6 | 15.9 | 5.5 ± 0.3 | 18 | 12.1 | 3.2 ± 0.3 | 10.4 | 20.8 | 21.5 ± 0.3 | 70.2 | 83.1 ± 0.1 | 271 | 82.5 ± 0.1 | 74.3 ± 0.3 | 242 | 0.9 | 65.6 ± 0.2 | 218 | 66.7 ± 0.7 (≈ 218 µM) | LC50 [4, 9]: 269 µM; LC50 ([5]; read-out: LC50/48 h): 96.3 ± 0.07 µg/mL; LC50 [5, 9]: 314 µM; LC50 [6, 9]: 214 µM; Mortality of rats: rat number end/start (Wistar rats; [10]): 0/3; Mortality of rats: rat number end/start (Wistar rats; [11]): 0/3; Mortality of rats: rat number end/start (Wistar rats; [12]): 0/3; Mortality of rats: rat number end/start (Wistar rats; [13]): 0/3; Mortality of rats: rat number end/start (Wistar rats; [14]): 0/3; Mortality of rats: rat number end/start (Wistar rats; [15]): 0/3 |
| Oc1cc(O)c2c(c1)O[C@H](c1cc(O)c(O)c(O)c1)[C@H](O)C2 [EGC, (−)-epigallocatechin] | 2.1 ± 0.4 | 6.8 | 22.4 | 3.3 ± 0.6 | 10.6 | 14.3 | 3.3 ± 0.5 | 10.6 | 14.3 | 83.3 ± 0.6 | 272 | 53.8 ± 0.9 | 176 | 87.5 ± 0.5 | 62.7 ± 0.2 | 205 | 0.8 | 92 ± 0.3 | 154 | 47.1 ± 0.5 (≈ 154 µM) | LC50 [4, 9]: 286 µM; LC50 ([5]; read-out: LC50/48 h): 93.8 ± 0.3 µg/mL; LC50 [5, 9]: 306 µM; LC50 [6, 9]: 301 µM; Mortality of rats: rat number end/start (Wistar rats; [10]): 0/3; Mortality of rats: rat number end/start (Wistar rats; [11]): 0/3; Mortality of rats: rat number end/start (Wistar rats; [12]): 0/3; Mortality of rats: rat number end/start (Wistar rats; [13]): 0/3; Mortality of rats: rat number end/start (Wistar rats; [14]): 0/3; Mortality of rats: rat number end/start (Wistar rats; [15]): 0/3 |
| O=C(O[C@H]1Cc2c(O)cc(O)cc2O[C@@H]1c1ccc(O)c(O)c1)c1cc(O)c(O)c(O)c1 [CG, (+)-catechin-3-O-gallate] | 7.6 ± 0.2 | 17.2 | 8.7 | 4.5 ± 0.3 | 10.2 | 14.7 | 4.2 ± 0.1 | 9.4 | 15.8 | 96.4 ± 0.1 | 218 | 95.2 ± 0.3 | 215 | 96.3 ± 0.3 | 90.6 ± 0.07 | 205 | 0.7 | 95.3 ± 0.1 | 150 | 66.3 ± 0.6 (≈ 150 µM) | LC50 [4, 9]: 218 µM; LC50 ([5]; read-out: LC50/48 h): 91.8 ± 0.3 µg/mL; LC50 [5, 9]: 208 µM; LC50 [6, 9]: 215 µM; Mortality of rats: rat number end/start (Wistar rats; [10]): 0/3; Mortality of rats: rat number end/start (Wistar rats; [11]): 0/3; Mortality of rats: rat number end/start (Wistar rats; [12]): 0/3; Mortality of rats: rat number end/start (Wistar rats; [13]): 0/3; Mortality of rats: rat number end/start (Wistar rats; [14]): 0/3; Mortality of rats: rat number end/start (Wistar rats; [15]): 0/3 |
| CCCSc1ccc2nc(NC(=O)OC)[nH]c2c1 [Albendazole, reference compound] | 4.2 ± 0.3 | 15.7 | 7 | 1 ± 0.2 | 3.9 | 29.4 | 2.1 ± 0.5 | 7.8 | 14 |  |  | > 100 |  |  |  | 26.4 | 4.1 |  | 111 | 29.4 ± 0.5 (≈ 111 µM) | Mortality of rats: rat number end/start (Wistar rats; [10]): 0/3; Mortality of rats: rat number end/start (Wistar rats; [11]): 0/3; Mortality of rats: rat number end/start (Wistar rats; [12]): 0/3; Mortality of rats: rat number end/start (Wistar rats; [13]): 0/3; Mortality of rats: rat number end/start (Wistar rats; [14]): 0/3; Mortality of rats: rat number end/start (Wistar rats; [15]): 0/3 |
| O=C(OC1Cc2c(O)cc(O)cc2OC1c1cc(O)c(O)c(O)c1)c1cc(O)c(O)c(O)c1 (single isomer, unassigned; (-)) [EGCG, (−)-epigallocatechin-3-O-gallate] | 1.2 ± 0.5 | 2.6 | 50.8 | 1 ± 0.5 | 2.3 | 60.9 | 1.3 ± 0.2 | 2.8 | 46.9 | 26.3 ± 1.3 | 57.4 | 35.7 ± 1 | 77.9 | 40.8 ± 0.3 | 49.8 ± 0.8 | 109 | 1.2 | > 100 | 133 | 60.9 ± 0.8 (≈ 133 µM) | LC50 [4, 9]: 89.1 µM; LC50 ([5]; read-out: LC50/48 h): 43.7 ± 2.1 µg/mL; LC50 [5, 9]: 95.4 µM; LC50 (O. ochengi [8]): < 2.5 µg/mL |
| c1ccc([C@H]2CN3CCSC3=N2)cc1 [Levamisole, reference compound] | 1 ± 1 | 5.1 | 27.3 | 2.1 ± 0.1 | 10.2 | 13.0 | 1 ± 0.3 | 5.1 | 27.3 | > 100 |  |  |  |  | 1.4 ± 0.2 | 7.2 |  | > 100 | 31.2 | 27.3 ± 0.8 (≈ 134 µM) |  |
